Measurements: ChEMBL document CHEMBL2413029, “Rapid modifications of N-substitution in iminosugars: development of new β-glucocerebrosidase inhibitors and pharmacological chaperones for Gaucher disease” (Bioorg Med Chem, 2013)
Substitutions are numbered along the chain they refer to. Activity calls are given as the source filed them. The calls are words filed in the database; no cut-off is given here.

Tests used:
[1] = target: Lysosomal alpha-glucosidase (Homo sapiens) (UniProt P10253); test: Induction of alpha-glucosidase in human GM00372 cells using 4-methylumbelliferyl alpha-D-glucoside as substrate at <6.25 uM after 4 days by fluorescence spectrophotometry relative to untreated control; format: cell-based
[2] = target: T1, Lysosomal acid glucosylceramidase (Homo sapiens, UniProt P04062); test: Competitive inhibition of human beta-glucocerebrosidase by Lineweaver-Burk double reciprocal plot method
T1 sequence (P04062 whole entry): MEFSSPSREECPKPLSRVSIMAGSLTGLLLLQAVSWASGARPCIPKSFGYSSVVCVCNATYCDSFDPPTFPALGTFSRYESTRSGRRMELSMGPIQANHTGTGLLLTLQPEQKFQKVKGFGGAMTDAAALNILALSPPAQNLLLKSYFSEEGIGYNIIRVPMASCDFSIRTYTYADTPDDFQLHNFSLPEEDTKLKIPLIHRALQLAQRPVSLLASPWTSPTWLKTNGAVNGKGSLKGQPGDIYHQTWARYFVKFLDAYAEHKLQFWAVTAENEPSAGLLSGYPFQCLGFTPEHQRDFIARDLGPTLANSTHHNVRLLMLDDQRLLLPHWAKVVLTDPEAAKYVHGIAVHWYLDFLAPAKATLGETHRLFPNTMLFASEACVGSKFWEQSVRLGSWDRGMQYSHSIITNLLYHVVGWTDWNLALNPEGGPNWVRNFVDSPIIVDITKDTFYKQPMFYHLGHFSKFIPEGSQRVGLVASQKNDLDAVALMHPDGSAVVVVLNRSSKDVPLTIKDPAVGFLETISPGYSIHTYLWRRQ

[3] = target: T2, Lysosomal acid glucosylceramidase (Homo sapiens) (UniProt P04062); test: Inhibition of human beta-glucocerebrosidase at 20 uM by fluorescence spectrophotometry
T2 sequence (whole entry): T1 sequence (P04062 whole entry)

[4] = target: Lysosomal alpha-glucosidase (Homo sapiens) (UniProt P10253); test: Induction of alpha-glucosidase in human GM00372 cells using 4-methylumbelliferyl alpha-D-glucoside as substrate at 1.5 uM after 4 days by fluorescence spectrophotometry relative to untreated control; format: cell-based
[5] = tested on: T3, Lysosomal acid glucosylceramidase (Homo sapiens), P04062 [N409S]; test: Induction of beta-glucocerebrosidase N370S mutant in human GM00372 cells using 4-methylumbelliferyl-beta-D-glucopyranoside as substrate at 12.5 uM by fluorescence spectrophotometry relative to untreated control; format: cell-based
T3 sequence (whole entry): T1 sequence (P04062 whole entry) with N409S

[6] = tested on: T3, Lysosomal acid glucosylceramidase (Homo sapiens), P04062 [N409S]; test: Induction of beta-glucocerebrosidase N370S mutant in human GM00372 cells using 4-methylumbelliferyl-beta-D-glucopyranoside as substrate at 3.1 uM by fluorescence spectrophotometry relative to untreated control; format: cell-based
[7] = tested on: T3, Lysosomal acid glucosylceramidase (Homo sapiens), P04062 [N409S]; test: Induction of beta-glucocerebrosidase N370S mutant in human GM00372 cells using 4-methylumbelliferyl-beta-D-glucopyranoside as substrate at 50 uM by fluorescence spectrophotometry relative to untreated control; format: cell-based
[8] = target: Lysosomal alpha-glucosidase (Homo sapiens) (UniProt P10253); test: Induction of alpha-glucosidase in human GM00372 cells using 4-methylumbelliferyl alpha-D-glucoside as substrate at 20 to 100 uM after 4 days by fluorescence spectrophotometry relative to untreated control; format: cell-based
[9] = tested on: T3, Lysosomal acid glucosylceramidase (Homo sapiens), P04062 [N409S]; test: Induction of beta-glucocerebrosidase N370S mutant in human GM00372 cells using 4-methylumbelliferyl-beta-D-glucopyranoside as substrate at 6.2 uM by fluorescence spectrophotometry relative to untreated control; format: cell-based
[10] = target: Lysosomal alpha-glucosidase (Homo sapiens) (UniProt P10253); test: Induction of alpha-glucosidase in human GM00372 cells using 4-methylumbelliferyl alpha-D-glucoside as substrate at 25 uM after 4 days by fluorescence spectrophotometry relative to untreated control; format: cell-based
[11] = target: T1, Lysosomal acid glucosylceramidase; test: Non-competitive inhibition of human beta-glucocerebrosidase by Lineweaver-Burk double reciprocal plot method
[12] = tested on: T3, Lysosomal acid glucosylceramidase (Homo sapiens), P04062 [N409S]; test: Induction of beta-glucocerebrosidase N370S mutant in human GM00372 cells using 4-methylumbelliferyl-beta-D-glucopyranoside as substrate at 25 uM by fluorescence spectrophotometry relative to untreated control; format: cell-based
[13] = target: Lysosomal alpha-glucosidase (Homo sapiens) (UniProt P10253); test: Induction of alpha-glucosidase in human GM00372 cells using 4-methylumbelliferyl alpha-D-glucoside as substrate at 6.2 uM after 4 days by fluorescence spectrophotometry relative to untreated control; format: cell-based
[14] = tested on: T3, Lysosomal acid glucosylceramidase (Homo sapiens), P04062 [N409S]; test: Induction of beta-glucocerebrosidase N370S mutant in human GM00372 cells using 4-methylumbelliferyl-beta-D-glucopyranoside as substrate at 1.5 uM by fluorescence spectrophotometry relative to untreated control; format: cell-based
[15] = tested on: T3, Lysosomal acid glucosylceramidase (Homo sapiens), P04062 [N409S]; test: Induction of beta-glucocerebrosidase N370S mutant trafficking from endoplasmic reticulum to lysosome in human GM00372 cells at 5 uM by immunocytochemistry; format: cell-based
[16] = tested on: T3, Lysosomal acid glucosylceramidase (Homo sapiens), P04062 [N409S]; test: Induction of beta-glucocerebrosidase N370S mutant in human GM00372 cells using 4-methylumbelliferyl-beta-D-glucopyranoside as substrate at 625 nM by fluorescence spectrophotometry relative to untreated control; format: cell-based

## O=C(CC1c2ccccc2-c2ccccc21)NCCCCN1C[C@H](O)[C@@H](O)[C@H](O)[C@H]1CO
[1]
  Activity: 60%
[2]
  Ki: 400 nM
[3]
  inhibition: Active
[4]
  fold change (FC): 0.3
[5]
  fold change (FC): 1.9

## CC[C@@H]1[C@@H](O)[C@H](O)[C@@H](CO)N1CCCCNC(=O)CC(c1ccccc1)(c1ccccc1)c1ccccc1
[6]
  fold change (FC): 1.4

## O=C(NCCCCN1C[C@H](O)[C@@H](O)[C@H](O)[C@H]1CO)C1CC1
[3]
  inhibition: < 60%

## O=C(Cc1cc(C(F)(F)F)cc(C(F)(F)F)c1)NCCCCN1C[C@H](O)[C@@H](O)[C@H](O)[C@H]1CO
[1]
  Activity: 60%
[2]
  Ki: 71 nM
[3]
  inhibition: Active
[4]
  fold change (FC): 0.4
[5]
  fold change (FC): 1.75

## O=C(CCC1CCCC1)NCCCCN1C[C@H](O)[C@@H](O)[C@H](O)[C@H]1CO
[3]
  inhibition: < 60%

## O=C(NCCCCN1C[C@H](O)[C@@H](O)[C@H](O)[C@H]1CO)C1CCC1
[3]
  inhibition: < 60%

## O=C(CC1c2ccccc2-c2ccccc21)NCCCCN1C[C@@H](O)[C@H](O)[C@H]1CO
[7]
  fold change (FC): 1.8
[8]
  Activity: < 10%

## O=C(CC(c1ccccc1)(c1ccccc1)c1ccccc1)NCCCCN1C[C@@H](O)[C@H](O)[C@H]1CO
[9]
  fold change (FC): 2.5
[10]
  fold change (FC): 1.2

## COc1ccc2c(c1)C(CC(=O)NCCCCN1C[C@H](O)[C@@H](O)[C@H](O)[C@H]1CO)CC2 (some centres not stated)
[11]
  Ki: 1100 nM
[3]
  inhibition: Active
[12]
  fold change (FC): 1.5

## CCCCCCCCCN1C[C@H](O)[C@@H](O)[C@H](O)[C@H]1CO
[13]
  fold change (FC): 0.4
[1]
  Activity: 60%

## O=C(CC(c1ccccc1)(c1ccccc1)c1ccccc1)NCCCCN1[C@H](CO)[C@@H](O)[C@H](O)[C@H]1CO
[14]
  fold change (FC): 2.2
[2]
  Ki: 4100 nM
[8]
  Activity: < 10%
[15]
  Activity: Active

## O=C(CC1CCCC1)NCCCCN1C[C@H](O)[C@@H](O)[C@H](O)[C@H]1CO
[3]
  inhibition: < 60%

## O=C(CC(c1ccccc1)(c1ccccc1)c1ccccc1)NCCCCN1C[C@H](O)[C@@H](O)[C@H](O)[C@H]1CO
[1]
  Activity: 60%
[2]
  Ki: 400 nM
[3]
  inhibition: Active
[16]
  fold change (FC): 1.8
[4]
  fold change (FC): 0.4

## O=C(NCCCCN1C[C@H](O)[C@@H](O)[C@H](O)[C@H]1CO)C1CCCC1
[3]
  inhibition: < 60%

## O=C(CC1c2ccccc2-c2ccccc21)NCCCCN1[C@H](CO)[C@@H](O)[C@H](O)[C@H]1CO
[9]
  fold change (FC): 1.7
[8]
  Activity: < 10%

## O=C(COc1ccc(Cl)c(Cl)c1)NCCCCN1C[C@H](O)[C@@H](O)[C@H](O)[C@H]1CO
[2]
  Ki: 3200 nM
[3]
  inhibition: Active

## CC[C@@H]1[C@@H](O)[C@H](O)[C@@H](CO)N1CCCCNC(=O)CC1c2ccccc2-c2ccccc21
[5]
  fold change (FC): 1.6

## O=C(CC1CCCCC1)NCCCCN1C[C@H](O)[C@@H](O)[C@H](O)[C@H]1CO
[3]
  inhibition: < 60%

## O=C(NCCCCN1C[C@H](O)[C@@H](O)[C@H](O)[C@H]1CO)C1CCc2ccccc2C1 (some centres not stated)
[2]
  Ki: 1000 nM
[3]
  inhibition: Active
